# Data taken from patent US5603943A, “Nasally administrable compositions” (Dott Research Laboratory, priority 1994, dated 1997).
# “And” between values parts separate entries of the source, which are not always exact repeats. Equal values may be shown once.
# How the values were obtained:
# [1] = Glucagon blood concentration, nasal powder with hydroxyapatite (Test Example 8); assay type: in vivo, healthy male adults (human)
# Experimental: A nasally administrable composition in powdery form was prepared by formulating glucagon (from hog spleen) as a physiologically active peptide at the rate of 40 mg per composition (1,000 mg) with hydroxyapatite as a carrier having a mean particle size ranging from 40 to 45 μm.
# The resulting composition was nasally administered once at a dose of 1.2 glucagon unit/30 mg to three healthy male adults and the blood (2.5 ml) was collected from each of the tested adults prior to administration and then at 5, 10, 15, 20, 30, 45, 60, 90, 120, 150 and 180 minutes after administration. The concentration of the glucagon in each of the collected blood samples was assayed with a standard RIA assay kit.
# [2] = Nasal absorption, clinical effect and irritation (general statement); assay type: in vivo; conditions: powder in specific carrier, nasal route
# [3] = Glucagon blood concentration, nasal powder with calcium carbonate (Test Example 9); assay type: in vivo, healthy male adults (human); conditions: for Concentration of glucagon in the blood: nasal 1.2 glucagon unit/30 mg, individual cases No. 21-24 in order
# Experimental: (§1) A nasally administrable composition in powdery form was prepared by formulating glucagon (from hog spleen) as a physiologically active peptide at the rate of 40 mg per composition (1,000 mg) with calcium carbonate as a carrier having a mean particle size ranging from 40 to 45 μm.
# […] The concentration of the glucagon in each of the collected blood samples was assayed with a standard RIA assay kit.
# [4] = Glucagon blood concentration, nasal powder with calcium carbonate, two doses (Test Example 12); assay type: in vivo, healthy male adults (human)
# Experimental: as §1
# The resulting composition was nasally administered once at a dose of 0.4 glucagon unit/30 mg to two healthy male adults and 2 glucagon unit/30 mg to another two healthy male adults, and the blood (2.5 ml) was collected from each of the tested adults prior to administration and then at 5, 10, 15, 20, 30, 45, 60, 90, 120, 150 and 180 minutes after administration. The concentration of the glucagon in each of the collected blood samples was assayed with a standard RIA assay kit.
substance,measurement,setting,value
glucagon,absorption through nasal route,[1],high extent of absorption
same,Concentration of glucagon in the blood,"[1]; 0 min (predose), nasal 1.2 glucagon unit/30 mg, individual cases No. 17-20 in order",0.051 ng/mL and 0.046 ng/mL and 0.036 ng/mL and 0.068 ng/mL
same,absorption into the body,[2],well absorbed into the body
same,clinical effects,[2],high clinical effects
same,absorption through nasal route,[3],high extent of absorption
same,Concentration of glucagon in the blood,[3]; 0 min (predose),0.034 ng/mL and 0.056 ng/mL and 0.042 ng/mL and 0.048 ng/mL
same,Concentration of glucagon in the blood,[3]; 5 min,0.073 ng/mL and 0.079 ng/mL and 0.08 ng/mL and 0.053 ng/mL
same,Concentration of glucagon in the blood,[3]; 10 min,0.097 ng/mL and 0.091 ng/mL and 0.08 ng/mL and 0.044 ng/mL
same,Concentration of glucagon in the blood,[3]; 15 min,0.086 ng/mL and 0.079 ng/mL and 0.083 ng/mL and 0.053 ng/mL
same,Concentration of glucagon in the blood,[3]; 20 min,0.085 ng/mL and 0.089 ng/mL and 0.082 ng/mL and 0.05 ng/mL
same,Concentration of glucagon in the blood,[3]; 30 min,0.071 ng/mL and 0.077 ng/mL and 0.09 ng/mL and 0.055 ng/mL
same,Concentration of glucagon in the blood,[3]; 45 min,0.073 ng/mL and 0.089 ng/mL and 0.076 ng/mL and 0.049 ng/mL
same,Concentration of glucagon in the blood,[3]; 60 min,0.064 ng/mL and 0.079 ng/mL and 0.077 ng/mL and 0.046 ng/mL
same,Concentration of glucagon in the blood,[3]; 90 min,0.062 ng/mL and 0.078 ng/mL and 0.073 ng/mL and 0.047 ng/mL
same,Concentration of glucagon in the blood,[3]; 120 min,0.056 ng/mL and 0.079 ng/mL and 0.088 ng/mL and 0.046 ng/mL
same,Concentration of glucagon in the blood,[3]; 150 min,0.052 ng/mL and 0.067 ng/mL and 0.079 ng/mL and 0.054 ng/mL
same,Concentration of glucagon in the blood,[3]; 180 min,0.051 ng/mL and 0.066 ng/mL and 0.062 ng/mL and 0.05 ng/mL
same,Concentration of glucagon in the blood,"[4]; 0 min (predose), nasal 0.4 glucagon unit/30 mg, individual cases No. 33-34 in order",0.112 ng/mL and 0.06 ng/mL
same,Concentration of glucagon in the blood,"[4]; 0 min (predose), nasal 2 glucagon unit/30 mg, individual cases No. 35-36 in order",0.053 ng/mL and 0.097 ng/mL
same,absorption through nasal route,[4]; 0.4 and 2 glucagon unit,high extent of absorption
same,Concentration of glucagon in the blood,"[4]; 5 min, nasal 0.4 glucagon unit/30 mg, individual cases No. 33-34 in order",0.115 ng/mL and 0.065 ng/mL
same,Concentration of glucagon in the blood,"[4]; 5 min, nasal 2 glucagon unit/30 mg, individual cases No. 35-36 in order",0.076 ng/mL and 0.109 ng/mL
same,Concentration of glucagon in the blood,"[4]; 10 min, nasal 0.4 glucagon unit/30 mg, individual cases No. 33-34 in order",0.119 ng/mL and 0.077 ng/mL
same,Concentration of glucagon in the blood,"[4]; 10 min, nasal 2 glucagon unit/30 mg, individual cases No. 35-36 in order",0.116 ng/mL and 0.104 ng/mL
same,Concentration of glucagon in the blood,"[4]; 15 min, nasal 0.4 glucagon unit/30 mg, individual cases No. 33-34 in order",0.13 ng/mL and 0.072 ng/mL
same,Concentration of glucagon in the blood,"[4]; 15 min, nasal 2 glucagon unit/30 mg, individual cases No. 35-36 in order",0.085 ng/mL and 0.096 ng/mL
same,Concentration of glucagon in the blood,"[4]; 20 min, nasal 0.4 glucagon unit/30 mg, individual cases No. 33-34 in order",0.127 ng/mL and 0.079 ng/mL
same,Concentration of glucagon in the blood,"[4]; 20 min, nasal 2 glucagon unit/30 mg, individual cases No. 35-36 in order",0.102 ng/mL and 0.118 ng/mL
same,Concentration of glucagon in the blood,"[4]; 30 min, nasal 0.4 glucagon unit/30 mg, individual cases No. 33-34 in order",0.116 ng/mL and 0.086 ng/mL
same,Concentration of glucagon in the blood,"[4]; 30 min, nasal 2 glucagon unit/30 mg, individual cases No. 35-36 in order",0.056 ng/mL and 0.1 ng/mL
same,Concentration of glucagon in the blood,"[4]; 45 min, nasal 0.4 glucagon unit/30 mg, individual cases No. 33-34 in order",0.121 ng/mL and 0.075 ng/mL
same,Concentration of glucagon in the blood,"[4]; 45 min, nasal 2 glucagon unit/30 mg, individual cases No. 35-36 in order",0.094 ng/mL and 0.105 ng/mL
same,Concentration of glucagon in the blood,"[4]; 60 min, nasal 0.4 glucagon unit/30 mg, individual cases No. 33-34 in order",0.137 ng/mL and 0.061 ng/mL
same,Concentration of glucagon in the blood,"[4]; 60 min, nasal 2 glucagon unit/30 mg, individual cases No. 35-36 in order",0.079 ng/mL and 0.122 ng/mL
same,Concentration of glucagon in the blood,"[4]; 90 min, nasal 0.4 glucagon unit/30 mg, individual cases No. 33-34 in order",0.122 ng/mL and 0.066 ng/mL
same,Concentration of glucagon in the blood,"[4]; 90 min, nasal 2 glucagon unit/30 mg, individual cases No. 35-36 in order",0.06 ng/mL and 0.117 ng/mL
same,Concentration of glucagon in the blood,"[4]; 120 min, nasal 0.4 glucagon unit/30 mg, individual cases No. 33-34 in order",0.108 ng/mL and 0.057 ng/mL
same,Concentration of glucagon in the blood,"[4]; 120 min, nasal 2 glucagon unit/30 mg, individual cases No. 35-36 in order",0.069 ng/mL and 0.099 ng/mL
same,Concentration of glucagon in the blood,"[4]; 150 min, nasal 0.4 glucagon unit/30 mg, individual cases No. 33-34 in order",0.111 ng/mL and 0.076 ng/mL
same,Concentration of glucagon in the blood,"[4]; 150 min, nasal 2 glucagon unit/30 mg, individual cases No. 35-36 in order",0.069 ng/mL and 0.106 ng/mL
same,Concentration of glucagon in the blood,"[4]; 180 min, nasal 0.4 glucagon unit/30 mg, individual cases No. 33-34 in order",0.11 ng/mL and 0.074 ng/mL
same,Concentration of glucagon in the blood,"[4]; 180 min, nasal 2 glucagon unit/30 mg, individual cases No. 35-36 in order",0.06 ng/mL and 0.105 ng/mL
